Reference: PMC5423977, “Safety, pharmacokinetics, and pharmacodynamics of BMS-986142, a novel reversible BTK inhibitor, in healthy participants” (European Journal of Clinical Pharmacology, 2017)

What was measured:
CD69 expression = tested on: CD69 expression; design: method as in PMID 27583770; conditions: in vitro; read-out: IC50 of CD69 inhibition derived from in vitro evaluation; cited from earlier work
[1] = Stability of BMS-986142 in human EDTA plasma and processed samples (bioanalytical validation); type: physicochemical
Description: Method validation was carried out according to the Bristol-Myers Squibb Standard Operating Procedures (SOPs) for chromatographic method validation which conforms to the U.S. FDA’s Good Laboratory Practice (GLP) regulations (21 CFR part 58). The validation experiments included but were not limited to the determination of the lower limit of quantification (LLOQ), specificity, accuracy and precision, recovery, and analyte stability under the expected conditions of sample transfer, sample storage, and sample preparation. The LLOQ of the assay was determined to be 1 ng/mL using six different lots of plasma. No interference from the endogenous components and the internal standard was observed.
The accuracy and precision data for BMS-986142, based on the maximum value from all six QC levels, obtained using one-way ANOVA in Watson are listed in Table 1. The recovery of the analyte from human plasma during extraction was determined at 3 ng/mL and 800 ng/mL for BMS-986142, at 3 ng/mL, 30 ng/mL and 750 ng/mL for methotrexate and 7-hydroxymethotrexate, by comparing the response ratios in human plasma samples spiked with the analyte prior to extraction with those spiked post-extraction. The recovery for BMS-986142 is 89-90%. The recoveries for methotrexate and 7-hydroxymethotrexate are 88-94% and 83-88%, respectively. The room temperature, freeze-thaw, and frozen storage stability of BMS-986142 were evaluated in triplicate or quadruplicate using Low QC, High QC, and Dilution QC. The reinjection integrity was assessed by re-injecting an entire run. The deviations of the mean predicted concentrations of the test samples from the nominal concentrations were used as an indicator of the stability of the analyte.

[2] = 19.6 hours at RT in Plasma, Dilution QC 10000.00
[3] = 19.6 hours at RT in Plasma, High QC 800.00
[4] = 19.6 hours at RT in Plasma, Low QC 3.00
[5] = 96 h Processed sample stability, Dilution QC 10000.00
[6] = 96 h Processed sample stability, High QC 800.00
[7] = 96 h Processed sample stability, Low QC 3.00
[8] = 7 days at 5 °C Re-injection integrity, Dilution QC 10000.00
[9] = 7 days at 5 °C Re-injection integrity, High QC 800.00
[10] = 7 days at 5 °C Re-injection integrity, Low QC 3.00
[11] = 327 day at -20 °C in Plasma, Dilution QC 10000.00
[12] = 327 day at -20 °C in Plasma, High QC 800.00
[13] = 327 day at -20 °C in Plasma, Low QC 3.00
[14] = After 4 Freeze-Thaw Cycle in Plasma, Dilution QC 10000.00
[15] = After 4 Freeze-Thaw Cycle in Plasma, High QC 800.00
[16] = After 4 Freeze-Thaw Cycle in Plasma, Low QC 3.00

Cc1c(-c2c(F)cc(C(N)=O)c3[nH]c4c(c23)CC[C@H](C(C)(C)O)C4)cccc1-n1c(=O)c2cccc(F)c2n(C)c1=O [BMS-986142, 6-fluoro-5-(R)-(3-(S)-(8-fluoro-1-methyl-2,4-dioxo-1,2-dihydroquinazolin-3(4H)-yl)-2-methylphenyl)-2-(S)-(2-hydroxypropan-2-yl)-2,3,4,9-tetrahydro-1H-carbazole-8-carboxamide]
IC50 (CD69 expression): 90 nM | Stability, %Dev [1, 2]: 3.1% | Stability, Mean Conc. [1, 2]: 10314.35 ng/mL | Stability, %Dev [1, 3]: 2.0% | Stability, Mean Conc. [1, 3]: 816.24 ng/mL | Stability, %Dev [1, 4]: 8.3% | Stability, Mean Conc. [1, 4]: 3.25 ng/mL | Stability, %Dev [1, 5]: -3.3% | Stability, Mean Conc. [1, 5]: 9666.77 ng/mL | Stability, %Dev [1, 6]: 1.7% | Stability, Mean Conc. [1, 6]: 813.52 ng/mL | Stability, %Dev [1, 7]: 4.0% | Stability, Mean Conc. [1, 7]: 3.12 ng/mL | Stability, %Dev [1, 8]: 9.9% | Stability, Mean Conc. [1, 8]: 10986.50 ng/mL | Stability, %Dev [1, 9]: 4.7% | Stability, Mean Conc. [1, 9]: 837.90 ng/mL | Stability, %Dev [1, 10]: 2.7% | Stability, Mean Conc. [1, 10]: 3.08 ng/mL | Stability, %Dev [1, 11]: -4.2% | Stability, Mean Conc. [1, 11]: 9578.40 ng/mL | Stability, %Dev [1, 12]: 1.9% | Stability, Mean Conc. [1, 12]: 815.36 ng/mL | Stability, %Dev [1, 13]: 5.0% | Stability, Mean Conc. [1, 13]: 3.15 ng/mL | Stability, %Dev [1, 14]: -7.6% | Stability, Mean Conc. [1, 14]: 9241.55 ng/mL | Stability, %Dev [1, 15]: -5.9% | Stability, Mean Conc. [1, 15]: 752.66 ng/mL | Stability, %Dev [1, 16]: -6.3% | Stability, Mean Conc. [1, 16]: 2.81 ng/mL
